Reference: US4031235A, “Insecticidal substituted acetate compounds” (Sumitomo Chemical Company, Limited, priority 1972, dated 1977)
In brackets after ≈: the same amount, converted by molar mass.

Experiments:
[1] = Oral toxicity to mice; conditions: mouse, in vivo
[2] = tested on: oriental house flies; experiment: Activity on knock-down against oriental house flies (Experimental Example 5); assay type: in vivo; conditions: 0.2% oil preparation, 0.7 ml, 1.5 Kg/cm^2, (70 cm)^3 glass box
Description: (§1) 0.2% oil preparation was prepared from each of the compounds (1), (2), (8), (14), (22), (25), (26), (27), (51), (62), (73), (82), (86), (88), to (90), (92), (94), (96), (111), (119), (121), (165), (175), (180), (184), (185), (195), (200), (201), and (208) and allethrin as a control using deodorized kerosene.
20 oriental house flies per group were released in a (70 cm)^3 volume glass box and sprayed with each of the oil preparations prepared in Experimental Example 4 from the compounds of Table 3 below and allethrin in an amount of 0.7 ml under a pressure of 1.5 Kg/cm^2.

[3] = tested on: adult mosquitoes (Culex pipiens); experiment: Knock-down of adult mosquitoes by 0.2% oil preparation (Experimental Example 4); assay type: in vivo; conditions: 0.2% oil preparation, 0.7 ml, 1.5 Kg/cm^2, (70 Cm)^3 glass box, read-out: mosquitoes knocked down
Description: as §1

[4] = tested on: Larvae of Mosquito (Culex pipiens); experiment: Insecticidal activity on larvae of mosquito (Experimental Example 2); assay type: in vivo; conditions: 24 h, read-out: LC50 (50% lethal concentration)
Description: (§2) An emulsifiable concentrate was prepared by blending each of the compounds (1) to (300) of the present invention, xylol and Sorpol SM-200 (trade name; manufactured by Toho Chemical Co., Ltd.) in a proportion of 25%, 50% and 25% (by weight), respectively. 20 to 25 day-old rice plants after seeding were grown in pots and sprayed with each 300-fold dilute solution of the emulsifiable concentrates thus prepared and a 300-fold dilute solution of carbaryl 30% wettable powder diluted with water as a control commercial agent in an amount of 10 ml/pot in each case and then the pots were covered by a cylindrical metal net. 15 small brown planthoppers (Delphacodes striatella Fallen) per group were released in each of the pots treated with carbaryl wettable powder, and compound (1) to (21) and (102) to (110), while 15 green rice leafhopper (Nephotettix bipuntatus cincticeps Uhler) per group were released in each of the pots treated with the carbaryl wettable powder and compounds (22) to (101) and (111) to (300).
Of the emulsifiable concentrates prepared in Experimental Example 1, each of those prepared from the compounds of Table 1 below was diluted with water to each of test concentrations and a 200 ml portion thereof was added to a 300 ml volume beaker. 30 larvae of mosquito per group were released in each of the beaker and allowed to stand for 1 day. Survival was observed and a LC50 (50% lethal concentration) was determined by calculating a percent killing in each case. As a control, lindane emulsifiable concentrate was used.

[5] = tested on: small brown planthoppers (Delphacodes striatella Fallen); experiment: Killing effect on small brown planthoppers on sprayed rice plants (Experimental Example 1); assay type: in vivo; conditions: 300-fold dilute solution, 10 ml/pot; one day after treatment; 1440 min
Description: as §2

[6] = tested on: green rice leafhopper (Nephotettix bipuntatus cincticeps Uhler); experiment: Killing effect on green rice leafhopper on sprayed rice plants (Experimental Example 1); assay type: in vivo; conditions: 300-fold dilute solution, 10 ml/pot; one day after treatment; 1440 min
Description: as §2

[7] = tested on: oriental house flies; experiment: Potentiation of insecticidal activity by addition of piperonyl butoxide, topical application (Experimental Example 6); assay type: in vivo; conditions: piperonyl butoxide 5 times active ingredient; acetone solution on thoracic dorsal plate
Description: To each of the compounds (22), (51), (62), (63), (82), (86), (125), (150), (160), (176), (177), (178), (184), (185), (191), (195), (200), (201), (204), (208), (210), (212) and (226) was added piperonyl butoxide in an amount of 5 times that of the active ingredient, respectively to prepare an acetone solution having a given concentration. Each of the thus prepared acetone solutions was applied onto a thoracic dosal plate of oriental house flies using a microshringe to observe a synergestic effect on insecticidal activity by piperonyl butoxide.

SMILES | LD50 [1] | KT50 (50% knock-down time) [2] | pest or weed control at 0.2 % [3] | LC50 [4] | killing effect [5] | killing effect [6] | Potentiation magnification of insecticidal activity by the addition of piperonyl butoxide [7]
CCC(C(=O)OCc1coc(Cc2ccccc2)c1)c1ccccc1 (stereo not drawn) [compound 1, 5'-Benzyl-3'-furylmethyl-α-ethyl-phenylacetate] | > 1000 mg/kg | 167 s | > 80% | 1.5 ng/mL (≈ 4.49 nM) |  |  | 
CNC(=O)Oc1cccc2ccccc12 [carbaryl] |  |  |  |  | more than 90% | more than 90% | 
CCC(C(=O)OCc1cccc(Oc2ccccc2)c1)c1ccc(C)cc1 (centres unmarked) [compound 176] | > 1000 mg/kg |  |  |  |  |  | 5.2
CCC(C(=O)OCc1coc(Cc2ccccc2)c1)c1ccc(F)cc1 (centres unmarked) [compound 185] |  | 137 s | > 80% |  |  |  | 5.0
Cc1ccc(C(C(=O)OCc2cccc(Oc3ccccc3)c2)C(C)C)cc1 (stereo not drawn) [compound 108, 3'-Phenoxybenzyl-α-isopropyl-4-methylphenylacetate] | > 1000 mg/kg |  |  |  |  |  | 
CC(C)C(C(=O)OCc1cccc(Oc2ccccc2)c1)c1ccc(Cl)cc1 (centres unmarked) [compound 206] | > 1000 mg/kg |  |  | 3.2 ng/mL (≈ 8.1 nM) |  |  | 5.1
C#CCc1ccc(C(C#C)OC(=O)C(c2ccc(OC)cc2)C(C)C)o1 (stereo not drawn) [compound 51, 5'-Propargyl-2'-(α'-ethynyl)-furfuryl-α-isopropyl-4-methoxyphenylacetate] |  | 104 s | > 80% |  |  |  | 7.2
CC(C)C(C(=O)OC(C#N)c1cccc(Oc2ccccc2)c1)c1ccc(F)cc1 (centres unmarked) [compound 165] |  | 145 s | > 80% | 1.2 ng/mL (≈ 2.97 nM) |  |  | 
CCC(C(=O)OCc1cccc(Oc2ccccc2)c1)c1ccc(OC)cc1 (stereo not drawn) [compound 80, 3'-Phenoxybenzyl-α-ethyl-4-methoxyphenylacetate] | > 2000 mg/kg |  |  |  |  |  | 
CCC(C(=O)OCc1coc(Oc2ccccc2)c1)c1ccc(Cl)cc1 (centres unmarked) [compound 180] |  | 157 s | > 80% | 7.2 ng/mL (≈ 19.4 nM) |  |  | 
Cc1ccc(C(C(=O)OCc2cc3c(s2)CCCC3)C(C)C)cc1 (centres unmarked) [compound 150] | > 1000 mg/kg |  |  |  |  |  | 4.2
C#CCc1ccc(C(C#C)OC(=O)C(c2ccc(Cl)cc2)C(C)C)o1 (centres unmarked) [compound 201] |  | 105 s | > 80% |  |  |  | 7.0
C=C(C)C(C(=O)OCc1cccc(Oc2ccccc2)c1)c1ccc(Cl)cc1 (stereo not drawn) [compound 119, 3'-Phenoxybenzyl-α-isopropenyl-4-chlorophenylacetate] | > 1000 mg/kg | 132 s | > 80% | 4.4 ng/mL (≈ 11.2 nM) |  |  | 5.5
CCC(C(=O)OCc1cccc(Oc2ccccc2)c1)c1ccccc1 (stereo not drawn) [compound 2, 3'-Phenoxybenzyl-α-ethylphenylacetate] | > 1000 mg/kg |  | > 80% | 3.4 ng/mL (≈ 9.81 nM) |  |  | 
Cc1ccc(C(C(=O)OCc2coc(Oc3ccccc3)c2)C(C)C)cc1 (centres unmarked) [compound 195] |  | 140 s | > 80% |  |  |  | 5.7
Cc1ccc(C(C(=O)OCc2ccc(Cc3ccco3)s2)C(C)C)cc1 (centres unmarked) [compound 145] | > 1000 mg/kg |  |  | 3.9 ng/mL (≈ 10.6 nM) |  |  | 
COc1ccc(C(C(=O)OCc2coc(Cc3ccccc3)c2)C(C)C)cc1 (stereo not drawn) [compound 22, 5'-Benzyl-3'-furylmethyl-α-isopropyl-4-methoxyphenylacetate] | 900 mg/kg | 136 s | > 80% |  |  |  | 5.0
C=C(C)C(C(=O)OCc1cccc(Oc2ccccc2)c1)c1ccc(C)cc1 (stereo not drawn) [compound 125, 3'-Phenoxybenzyl-α -isopropenyl-4-methylphenylacetate] | 1000 mg/kg |  |  | 3.2 ng/mL (≈ 8.59 nM) |  |  | 6.0
CC(C)C(C(=O)OCN1C(=O)c2ccccc2C1=O)c1ccc(Cl)cc1 (centres unmarked) [compound 130] | > 1000 mg/kg |  |  |  |  |  | 
C#CCc1cc(C)c(COC(=O)C(c2ccc(Cl)cc2)C(C)C)c(C)c1 (centres unmarked) [compound 129] | > 1000 mg/kg |  |  |  |  |  | 
COc1ccc(C(C(=O)OCc2cccc(Oc3ccccc3)c2)C(C)C)cc1 (stereo not drawn) [compound 62, 3'-Phenoxybenzyl-α-isopropyl-4-methoxyphenylacetate] | > 1000 mg/kg | 154 s | > 80% |  |  |  | 5.3
C=C(C)C(C(=O)OCc1cccc(Oc2ccccc2)c1)c1ccc(Br)cc1 (stereo not drawn) [compound 111, 3'-Phenoxybenzyl-α-isopropenyl-4-bromophenylacetate] |  | 138 s | > 80% | 2.5 ng/mL (≈ 5.72 nM) |  |  | 
C=C(C)C(C(=O)OCc1cccc(Oc2ccccc2)c1)c1ccc(OC)cc1 (stereo not drawn) [compound 82, 3'-Phenoxybenzyl-α-isopropenyl-4-methoxyphenylacetate] | > 1000 mg/kg | 132 s | > 80% |  |  |  | 6.7
CC(C)C(C(=O)OCc1coc(Cc2ccccc2)c1)c1ccc(F)cc1 (centres unmarked) [compound 208] |  | 150 s | > 80% |  |  |  | 5.2
C#CCc1ccc(C(C#C)OC(=O)C(c2ccc(C)cc2)C(C)C)o1 (centres unmarked) [compound 200] |  | 114 s | > 80% |  |  |  | 7.5
COc1ccc(C(C(=O)OCc2ccc(Oc3ccccc3)o2)C(C)C)cc1 (stereo not drawn) [compound 63, 5'-Phenoxyfurfuryl-α-isopropyl-4-methoxyphenylacetate] | > 1000 mg/kg | 140 s |  |  |  |  | 4.8
C=C(C)C(C(=O)OCc1cccc(Oc2ccccc2)c1)c1ccc(F)cc1 (stereo not drawn) [compound 121, 3'-Phenoxybenzyl-α-isopropenyl-4-fluorophenylacetate] |  | 130 s | > 80% | 3.7 ng/mL (≈ 9.83 nM) |  |  | 
CCC(C(=O)OCc1coc(Cc2ccccc2)c1)c1ccc(Cl)cc1 (centres unmarked) [compound 184] | 940 mg/kg | 142 s | > 80% | 7.8 ng/mL (≈ 21.1 nM) |  |  | 5.6
C#CCc1cc(C(C#C)OC(=O)C(CC)c2ccccc2)co1 (stereo not drawn) [compound 8, 5'-Propargyl-α '-ethynyl-3'-furylmethyl-α-ethyl-phenylacetate] | 750 mg/kg | 128 s | > 80% |  |  |  | 
